SMILES strings stand for the structures.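 48-hour exposure; five concentrations; linearly interpolated endpoints. Abbreviation: GI50, concentration required for 50% inhibition of growth. TGI denotes the concentration required for complete inhibition of growth.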

Test systems include SK-OV-3 ovarian; DU-145 prostate; OVCAR-8 ovarian; RPMI-8226 leukemia; OVCAR-4 ovarian; A549 NSCLC; LOX IMVI melanoma; MCF7 breast; HOP-92 NSCLC; SR leukemia.
Holding throughout (assay): DTP human tumour cell line panel, 48 h

Turning to `COc1ccccc1C1=C(Nc2ccccc2)C(=O)NC1=O`, the GI50 in the assay with SK-OV-3 ovarian, in the assay with DU-145 prostate, in the assay with OVCAR-8 ovarian, in the assay on RPMI-8226 leukemia, with OVCAR-4 ovarian and with A549 NSCLC was greater than 25 µM each time. The GI50 in the assay on LOX IMVI melanoma and in the assay with MCF7 breast was greater than 25 µM in each case. Besides, the concentration for total growth inhibition (TGI) in the assay on SK-OV-3 ovarian, with DU-145 prostate, with OVCAR-8 ovarian, with RPMI-8226 leukemia, with OVCAR-4 ovarian and in the assay with A549 NSCLC was greater than 25 µM in each case. Also, the TGI with LOX IMVI melanoma and in the assay with MCF7 breast was greater than 25 µM in each case.
As to `S=C(Nc1ccc(N=Nc2ccccc2)cc1)SCc1ccccc1`, the TGI was 98 µM in the assay with SK-OV-3 ovarian; 29.6 µM in the assay on DU-145 prostate; 22.5 µM with OVCAR-8 ovarian; 33.3 µM with RPMI-8226 leukemia; 33.2 µM in the assay with OVCAR-4 ovarian; 35.8 µM in the assay on A549 NSCLC. For the same compound, the TGI is 38.5 µM in the assay on LOX IMVI melanoma, 30.4 µM with HOP-92 NSCLC and 64.6 µM in the assay on MCF7 breast.
For `ON(Cc1ccccc1)C(=S)c1ccccc1`, the TGI with SK-OV-3 ovarian is greater than 100 µM; with DU-145 prostate it was greater than 100 µM; in the assay on OVCAR-8 ovarian, greater than 69.8 µM; with RPMI-8226 leukemia, greater than 100 µM; in the assay on OVCAR-4 ovarian, greater than 100 µM; in the assay on A549 NSCLC, greater than 100 µM. Also, the TGI is greater than 46.9 µM in the assay on LOX IMVI melanoma, greater than 100 µM in the assay on HOP-92 NSCLC and greater than 100 µM with MCF7 breast.
In the case of `COc1ccc2c(C3(c4cn(C)c5cc(OC)ccc45)C(=O)Nc4ccc(Cl)cc43)cn(C)c2c1`, the GI50 in the assay on SK-OV-3 ovarian is 5.07 µM; with DU-145 prostate, 4.84 µM; with OVCAR-8 ovarian, 3.09 µM; with RPMI-8226 leukemia, 3.94 µM; with OVCAR-4 ovarian, 3.35 µM; in the assay on SR leukemia, 2.64 µM. The GI50 with LOX IMVI melanoma is 3.4 µM; in the assay on HOP-92 NSCLC, 3.02 µM; with MCF7 breast it was 3.09 µM. In addition, the TGI was greater than 100 µM in the assay with SK-OV-3 ovarian; greater than 100 µM in the assay with DU-145 prostate; greater than 100 µM in the assay with OVCAR-8 ovarian; greater than 100 µM in the assay on RPMI-8226 leukemia; greater than 100 µM with OVCAR-4 ovarian; 6.83 µM with SR leukemia. Moreover, the TGI with LOX IMVI melanoma was 21.9 µM; with HOP-92 NSCLC, 37.4 µM; with MCF7 breast it was greater than 100 µM.
On to `O=C(O)C1CC2(C1)CC(C(=O)O)C2` (stereo unspecified), for which the TGI with SK-OV-3 ovarian, in the assay on DU-145 prostate, in the assay with RPMI-8226 leukemia, in the assay with OVCAR-4 ovarian, in the assay on SR leukemia and in the assay with A549 NSCLC was greater than 100 µM each time. The TGI with LOX IMVI melanoma and with MCF7 breast was greater than 100 µM throughout.
For `O=[N+]([O-])c1ccc(Oc2nc(Nc3ccc(O[C@H]4CO[C@H]5[C@@H]4OC[C@@H]5O)c(Cl)c3)ncc2F)c(Cl)c1`, the GI50 was 0.917 µM in the assay with DU-145 prostate; 1.21 µM in the assay with OVCAR-8 ovarian; 0.61 µM in the assay with RPMI-8226 leukemia; 1.19 µM in the assay with OVCAR-4 ovarian; 0.548 µM in the assay with SR leukemia; 1.86 µM with A549 NSCLC. Also, the results for the GI50 with LOX IMVI melanoma, with HOP-92 NSCLC and in the assay with MCF7 breast were 0.667 µM, 0.807 µM and 1.66 µM, respectively. Besides, the TGI in the assay on DU-145 prostate is 5.45 µM; with OVCAR-8 ovarian, greater than 100 µM; in the assay on RPMI-8226 leukemia it was 2.56 µM; in the assay on OVCAR-4 ovarian, 5.73 µM; with SR leukemia it was 7.79 µM; in the assay with A549 NSCLC, 6.15 µM. For the same compound, the values for the TGI in the assay on LOX IMVI melanoma, with HOP-92 NSCLC and with MCF7 breast were 2.28 µM, 2.65 µM and 4.16 µM, respectively.
With `Cn1nc(-c2ccc(Cl)cc2)nc2c(=O)n(C)c(=O)nc1-2`, the GI50 in the assay with SK-OV-3 ovarian is 4.8 µM; in the assay with DU-145 prostate, 0.89 µM; in the assay on OVCAR-8 ovarian, 0.976 µM; with RPMI-8226 leukemia it was 0.886 µM; with OVCAR-4 ovarian, 1.2 µM; in the assay with A549 NSCLC it was 0.768 µM. For the same compound, the values for the GI50 in the assay on LOX IMVI melanoma, in the assay on HOP-92 NSCLC and with MCF7 breast were 0.601 µM, 1.72 µM and 0.594 µM, respectively. The TGI in the assay on SK-OV-3 ovarian is 17.7 µM; with DU-145 prostate, 1.63 µM; with OVCAR-8 ovarian it was 3.51 µM; in the assay on RPMI-8226 leukemia, 2.23 µM; with OVCAR-4 ovarian, 3.3 µM; in the assay on A549 NSCLC it was 1.73 µM. Further, the TGI with LOX IMVI melanoma came out at 1.61 µM; with HOP-92 NSCLC, 4.99 µM; in the assay with MCF7 breast, 1.57 µM.
As to `CC(=O)c1c(CN(C)c2ccccc2)n([O-])c2ccccc2[n+]1=O`, the GI50 in the assay on SK-OV-3 ovarian was 31.8 µM; in the assay with DU-145 prostate, 42.1 µM; with OVCAR-8 ovarian it was 43.1 µM; in the assay on RPMI-8226 leukemia it was 13.2 µM; in the assay on OVCAR-4 ovarian, 29 µM; in the assay with SR leukemia, 5.79 µM. In addition, the GI50 in the assay with A549 NSCLC was 47.1 µM; in the assay on LOX IMVI melanoma, 38.2 µM; with MCF7 breast, 15 µM. Also, the TGI is 70 µM in the assay on SK-OV-3 ovarian; greater than 100 µM with DU-145 prostate; greater than 100 µM with OVCAR-8 ovarian; 40.9 µM in the assay on RPMI-8226 leukemia; greater than 100 µM in the assay on OVCAR-4 ovarian; greater than 100 µM in the assay on SR leukemia. The TGI was greater than 100 µM with A549 NSCLC, greater than 100 µM with LOX IMVI melanoma and 63 µM in the assay on MCF7 breast.
As to `COc1cccc(/C=N/NC(=S)NC2CC3CCC2C3)c1O` (stereo unspecified), the GI50 in the assay on SK-OV-3 ovarian is 4.46 µM; with DU-145 prostate, 9.79 µM; with OVCAR-8 ovarian, 5.2 µM; in the assay on RPMI-8226 leukemia it was 11.1 µM; in the assay on OVCAR-4 ovarian, 1.82 µM; with SR leukemia it was 3.08 µM. The GI50 in the assay with A549 NSCLC was 4 µM; with LOX IMVI melanoma, 5.09 µM; with MCF7 breast it was 4.74 µM. Further, the TGI with SK-OV-3 ovarian amounted to 14.4 µM; in the assay with DU-145 prostate it was 22.8 µM; with OVCAR-8 ovarian, 18.5 µM; with RPMI-8226 leukemia it was 49.7 µM; in the assay on OVCAR-4 ovarian, 4.46 µM; in the assay on SR leukemia it was 10.8 µM. In addition, the TGI in the assay on A549 NSCLC came to 15.9 µM; in the assay on LOX IMVI melanoma, 18 µM; in the assay with MCF7 breast, 27.1 µM.
As for `COc1ccc(S(=O)(=O)NC2=NCCN2C(=S)SN2CCn3c2nsc3=S)cc1`, the GI50 was 13.5 µM with DU-145 prostate; 27.3 µM in the assay with OVCAR-8 ovarian; 14 µM with RPMI-8226 leukemia; 18 µM in the assay with OVCAR-4 ovarian; 17 µM with SR leukemia; 23.4 µM in the assay with A549 NSCLC. In addition, the GI50 in the assay with LOX IMVI melanoma is 15.5 µM; with HOP-92 NSCLC it was 16.9 µM; in the assay on MCF7 breast, 12.4 µM. In addition, the TGI in the assay with DU-145 prostate was 31.9 µM; in the assay on OVCAR-8 ovarian, greater than 100 µM; with RPMI-8226 leukemia it was 63.1 µM; in the assay on OVCAR-4 ovarian, 44.7 µM; with SR leukemia, greater than 100 µM; with A549 NSCLC it was 79.4 µM. Moreover, the TGI in the assay with LOX IMVI melanoma was 33.1 µM; in the assay with HOP-92 NSCLC it was 35.4 µM; with MCF7 breast it was 27.2 µM.
On to `COC(=O)C(=CNC(N)=O)C(=O)OC`, for which the TGI with DU-145 prostate, in the assay with OVCAR-8 ovarian, with RPMI-8226 leukemia, in the assay on SR leukemia, with A549 NSCLC and in the assay with LOX IMVI melanoma was greater than 100 µM throughout. The TGI in the assay with HOP-92 NSCLC and in the assay on MCF7 breast was greater than 100 µM in each case.
For the compound `CC(=O)N1N=C(c2ccc(Nc3ccnc4cc(Cl)ccc34)cc2)CC1c1ccc(Cl)cc1` (stereo unspecified), the GI50 in the assay on DU-145 prostate was greater than 100 µM; in the assay with OVCAR-8 ovarian, greater than 100 µM; in the assay on OVCAR-4 ovarian it was 6.92 µM; in the assay with SR leukemia, 0.612 µM; in the assay on A549 NSCLC, 8.81 µM; in the assay on LOX IMVI melanoma, 3.15 µM. In addition, the figures for the GI50 in the assay with HOP-92 NSCLC and with MCF7 breast were greater than 100 µM and 4.04 µM, respectively. In addition, the TGI with DU-145 prostate, in the assay with OVCAR-8 ovarian, in the assay on OVCAR-4 ovarian, with SR leukemia, in the assay with A549 NSCLC and in the assay with LOX IMVI melanoma was greater than 100 µM each time. For the same compound, the TGI with HOP-92 NSCLC and with MCF7 breast was greater than 100 µM in each case.
As to `COc1ccc(C(c2ccc(OCCN(C)C)cc2)c2cc3ccccc3c3ccccc23)cc1` (stereo unspecified), the GI50 with SK-OV-3 ovarian is 6.62 µM; with DU-145 prostate, 1.77 µM; in the assay on OVCAR-8 ovarian, 1.7 µM; with RPMI-8226 leukemia, 1.93 µM; in the assay on OVCAR-4 ovarian, 1.78 µM; in the assay with A549 NSCLC, 1.66 µM. Also, the GI50 in the assay with LOX IMVI melanoma is 1.64 µM; in the assay with HOP-92 NSCLC it was 1.31 µM; in the assay with MCF7 breast, 1.81 µM. Further, the TGI in the assay on SK-OV-3 ovarian came to 20.4 µM; in the assay on DU-145 prostate it was 3.37 µM; in the assay with OVCAR-8 ovarian, 3.17 µM; with RPMI-8226 leukemia it was 4.25 µM; with OVCAR-4 ovarian it was 3.39 µM; with A549 NSCLC it was 3.06 µM. In addition, the TGI in the assay with LOX IMVI melanoma is 3.06 µM; with HOP-92 NSCLC, 2.64 µM; in the assay with MCF7 breast it was 3.61 µM.
With `Oc1ccc(O)c(-c2cc(-c3ccc(Cl)cc3)nn2-c2ccccc2)c1`, the GI50 is 26.1 µM in the assay on DU-145 prostate; 4.51 µM with OVCAR-8 ovarian; 2.29 µM with RPMI-8226 leukemia; 3 µM in the assay on SR leukemia; 7.56 µM in the assay with A549 NSCLC; 2.71 µM in the assay on HOP-92 NSCLC. Moreover, in the assay with MCF7 breast, the GI50 is 3.88 µM. The TGI in the assay on DU-145 prostate was 48.3 µM; with OVCAR-8 ovarian, greater than 100 µM; with RPMI-8226 leukemia, 7.03 µM; in the assay with SR leukemia, 14.4 µM; in the assay on A549 NSCLC it was 31 µM; in the assay on HOP-92 NSCLC it was 22.9 µM. Moreover, the total growth inhibition concentration (TGI) with MCF7 breast is greater than 100 µM.

As usually defined, the GI50 is the concentration giving 50% growth inhibition. What is called TGI is the concentration giving total growth inhibition. The low end stands for greater sensitivity of the cells, the high end for lower sensitivity of the cells.

Values taken from PubChem BioAssay (NCI).
